For nine compounds, inhibition, Ki and Emax results are on record in US6110956A, “N-aryloxyethylamine derivatives for the treatment of depression” (American Home Products Corp., priority 1999, dated 2000).

SMILES strings stand for the structures. pKi: −log10 of the molar value. Where two headings read alike, the source gives them in different places.

The target in test [1] is T1, human 5-HT1A receptor (Homo sapiens, UniProt P08908).
T1 construct: expressed in transfected cells
T1 sequence (P08908 1-422): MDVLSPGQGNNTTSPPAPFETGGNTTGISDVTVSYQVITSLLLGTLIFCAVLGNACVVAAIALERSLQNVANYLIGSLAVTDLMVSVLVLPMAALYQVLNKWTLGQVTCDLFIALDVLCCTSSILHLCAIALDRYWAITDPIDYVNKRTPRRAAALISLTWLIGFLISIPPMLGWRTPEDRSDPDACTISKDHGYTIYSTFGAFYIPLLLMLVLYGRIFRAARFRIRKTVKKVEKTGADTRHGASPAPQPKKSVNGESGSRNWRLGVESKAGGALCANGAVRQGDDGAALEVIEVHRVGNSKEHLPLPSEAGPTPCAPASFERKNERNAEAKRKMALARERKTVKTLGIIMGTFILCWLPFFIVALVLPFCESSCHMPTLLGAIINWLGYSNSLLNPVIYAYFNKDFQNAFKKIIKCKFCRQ
The experiment in a line: 5-HT1A receptor binding ([3H]8-OH-DPAT, 5-HT1A.CHO cell membranes). As to conditions: for inhibition at 1 µM / inhibition at 0.01 µM: 0.5 h; for inhibition at 1 µM: read-out: 5-HT1A % @1000 nM; for inhibition at 0.01 µM: read-out: 5-HT1A % @10 nM. The method, then:
(§1) The PCR cloning of the human 5-HT1A receptor subtype from a human genomic library has been described previously Chanda et al., Mol. Pharmacol., 43:516 (1993). A stable Chinese hamster ovary cell line expressing the human 5-HT1A receptor subtype (5-HT1A.CHO cells) was employed throughout this study. Cells were maintained in DMEM supplemented with 10% foetal calf serum, non-essential amino acids and penicillin/streptomycin.
Cells were grown to 95-100% confluency as a monolayer before membranes were harvested for binding studies. Cells were gently scraped from the culture plates, transferred to centrifuge tubes, and washed twice by centrifugation (2000 rpm for 10 min., 4° C.) in buffer (50 mM Tris; pH 7.5). The resulting pellets were aliquoted and placed at -80° C. On the day of assay, the cells were thawed on ice, and resuspended in buffer. Studies were conducted using [^3 H]8-OH-DPAT as the radioligand. The binding assay was performed in 96 well microtiter plates in a final total volume of 250 μL of buffer. Competition experiments were performed by using 7 concentrations of unlabelled drug and a final ligand concentration of 1.5 nM . Non-specific binding was determined in the presence of 10 μM 5HT. Saturation analysis was conducted by using [^3 H]8-OH-DPAT at concentrations ranging from 0.3-30 nM. Following a 30 minute incubation at room temperature, the reaction was terminated by the addition of ice cold buffer and rapid filtration using a M-96 Brandel Cell Harvester (Gaithersburg, Md.) through a GF/B filter presoaked for 30 minutes in 0.5% polyethyleneimine.

The target of test [2] is T2, serotonin transporter (Rattus norvegicus, UniProt P31652).
T2 construct: frontal cortical membranes prepared from male Sprague-Dawley rats; from tissue; host or cells: frontal cortical membranes of male Sprague-Dawley rats
In words: serotonin transporter (ST) affinity, 3H-paroxetine binding in frontal cortical membranes. Details: species or system male Sprague-Dawley rats. As to the method: Briefly, frontal cortical membranes prepared from male Sprague-Dawley rats were incubated with ^3 H-paroxetine (0.1 nM) for 60 min at 25° C. All tubes also contained either vehicle, test compound (one to eight concentrations), or a saturating concentration of fluoxetine (10 μM) to define […]. All reactions are terminated by the addition of ice cold Tris buffer followed by rapid filtration using a Tom Tech filtration device to separate bound from free ^3 H-paroxetine.

Test [3] addresses T3, 5-HT1A cloned receptor (Homo sapiens, UniProt P08908).
T3 construct: expressed in transfected cells
T3 sequence (P08908 1-422): T1 sequence (P08908 1-422)
The experiment in a line: [35S]-GTPγS binding assay, 5-HT1A cloned receptor membranes. Format: biochemical. The note with it: maximum agonist response defined by excess 8-OH-DPAT.
Text: as §1
The [^35 S]-GTPγS binding assay was similar to that used by Lazareno and Birdsall, Br. J. Pharmacol. 109:1120 (1993). Briefly, 5-HT1A cloned receptor membrane fragments (as used for 5-HT1A receptor binding assays) were stored at -70° C. until needed. When needed, membranes were rapidly thawed, centrifuged at 40,000×g for 10 minutes and resuspended at 4° C. for 10 minutes in assay buffer ([…], 3 mM MgCl2, 100 mM NaCl, 1 mM EDTA, 10 uM GDP, […], pH 8.0). These membranes were then incubated for 30 min at 30° C. with [^35 S]GTPgS (1 nM) in the presence of vehicle, test compound (one to eight concentrations), or excess 8-OH-DPAT to define maximum agonist response. All reactions are terminated by the addition of ice cold Tris buffer followed by rapid filtration using a Tom Tech® filtration device to separate bound from free [^35 S]GTPgS. […] Bound radioactivity was counted and analyzed as above.

T2 sequence (P31652 whole entry): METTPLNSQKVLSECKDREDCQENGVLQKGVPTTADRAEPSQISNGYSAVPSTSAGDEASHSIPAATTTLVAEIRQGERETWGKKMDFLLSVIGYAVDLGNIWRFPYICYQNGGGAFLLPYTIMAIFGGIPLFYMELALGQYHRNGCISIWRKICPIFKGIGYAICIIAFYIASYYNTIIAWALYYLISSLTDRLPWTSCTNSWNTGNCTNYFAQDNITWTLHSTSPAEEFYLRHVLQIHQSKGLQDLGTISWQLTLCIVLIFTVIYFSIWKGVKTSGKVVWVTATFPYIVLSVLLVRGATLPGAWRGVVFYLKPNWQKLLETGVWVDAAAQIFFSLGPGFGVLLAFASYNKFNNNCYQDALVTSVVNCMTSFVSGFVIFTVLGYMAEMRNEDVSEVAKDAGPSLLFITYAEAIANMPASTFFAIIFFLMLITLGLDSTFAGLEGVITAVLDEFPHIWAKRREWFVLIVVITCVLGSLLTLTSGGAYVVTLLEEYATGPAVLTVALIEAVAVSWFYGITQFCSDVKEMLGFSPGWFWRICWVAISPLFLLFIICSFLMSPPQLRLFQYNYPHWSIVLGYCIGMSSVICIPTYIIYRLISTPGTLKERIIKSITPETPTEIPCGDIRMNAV

In the case of `Cn1cc([C@H]2CC[C@@H](NCCOc3cc(F)cc4c3OCCC4)CC2)c2cc(C#N)ccc21` [Example 5c, 3-{(1,4-cis)-4-[2-(6-Fluoro-chroman-8-yloxy)-ethylamino]-cyclohexyl}-1-methyl-1H-indole-5-carbonitrile], the inhibition at 1 µM in test [1] was found to be 47%.

Take `COc1cc(F)c(F)cc1OCCN[C@H]1CC[C@@H](c2c[nH]c3ccc(F)cc32)CC1` [Example 11a, (1,4-cis)-[2-(4,5-Difluoro-2-methoxy-phenoxy)-ethyl]-[4-(5-fluoro-1H-indol-3-yl)-cyclohexyl]-amine]: the inhibition at 0.01 µM in test [1] is 0%.

With `COc1ccccc1OCCNCC1CCC(c2c[nH]c3ccc(C#N)cc23)CC1` (centres unmarked) [Example 10b, 3-(4-{[2-(Methoxy-phenoxy)-ethylamino]-methyl}-cyclohexyl)-1H-indole-5-carbonitrile], in test [1], the inhibition at 0.01 µM was determined as 7%.

Consider `COc1ccccc1OCCNC[C@H]1CC[C@H](c2c[nH]c3ccc(F)cc32)CC1` [Example 10a, [(1,4-trans)-4-(5-Fluoro-1H-indol-3-yl)-cyclohexylmethyl]-[2-(2-methoxy-phenoxy)-ethyl]-amine], for which the results for the pKi in test [2] and in test [1] were 8.13 and 7.57, respectively. In addition, the maximal effect (Emax) in test [3] turned out to be 60%.

For `OC1(CNCCOc2cccc3[nH]ccc23)CCC(c2c[nH]c3ccc(F)cc23)CC1` (centres unmarked) [Example 13, (1,4)-4-(5-Fluoro-1H-indol-3-yl)-1-{[2-(1H-indol-4-yloxy)-ethylamino]-methyl}-cyclohexanol], in test [1] ([3H]8-OH-DPAT 1.5 nM, 30 minutes, room temperature, read-out: 5-HT1A (Ki)), the pKi was 6.59.

With `N#Cc1ccc2[nH]cc([C@H]3CC[C@@H](NCCOc4cc(F)cc5c4OCC5)CC3)c2c1` [Example 6a], the inhibition at 1 µM in test [1] was determined as 49%.

As for `COc1cc(F)ccc1OCCN[C@H]1CC[C@@H](c2c[nH]c3ccc(F)cc32)CC1` [Example 9a, [(1,4-cis)-4-(5-Fluoro-1H-indol-3-yl)-cyclohexyl]-[2-(4-fluoro-2-methoxy-phenoxy)-ethyl]-amine], the inhibition at 0.01 µM in test [1] was 16%.

As for `COc1cc(S(C)(=O)=O)c(F)cc1OCCN[C@H]1CC[C@H](c2c[nH]c3ccc(F)cc32)CC1` [Example 12, [(1,4-trans)-4-(5-Fluoro-1H-indol-3-yl)-cyclohexyl]-[2-(5-fluoro-4-methanesulfonyl-2-methoxy-phenoxy)-ethyl]-amine], in test [1], the inhibition at 0.01 µM amounted to 0%.

`Fc1cc2c(c(OCCN[C@H]3CC[C@@H](c4c[nH]c5ccc(F)cc54)CC3)c1)OCCC2` [Example 5a, [2-(6-Fluoro-chroman-8-yloxy)-ethyl]-[(1,4-cis)-4-(5-fluoro-1H-indol-3-yl)-cyclohexyl]-amine]: the inhibition at 1 µM in test [1] is 49%.
